Reference: patent US20140135270A1, “MACROCYCLIC COMPOUNDS FOR INHIBITION OF INHIBITORS OF APOPTOSIS” (Ensemble Therapeutics Corp., priority 2012, published 2014)
Where two headings read alike, the source gives them in different places.

Tests used:
[1] = the molecule shown is the open-chain precursor, rcm bond, 38-membered ring, DCE, 70.0 °C
[2] = the molecule shown is the open-chain precursor, rcm bond

Q: Which ring closure, yield after HPLC ([1]; Hoveyda-Grubbs II (10 mol%), 5.2 mM) does the source give for “(S)-tert-Butyl 2-((S)-2-((2S,4S)-4-allyl-1-((S)-2-((S)-2-((tert-butoxycarbonyl)(methyl)amino)propanamido)-3,3-dimethylbutanoyl)pyrrolidine-2-carboxamido)-3-(naphthalen-2-yl)propanamido)-3-(4-((1-((3S,5S)-5-(((S)-1-(((S)-2-(4-(allyloxy)phenyl)-1-(5-oxo-4,5-dihydro-1,3,4-oxadiazol-2-yl)ethyl)amino)-3-(naphthalen-2-yl)-1-oxopropan-2-yl)carbamoyl)-1-((S)-2-((S)-2-((tert-butoxycarbonyl)(methyl)amino)propanamido)-3,3-dimethylbutanoyl)pyrrolidin-3-yl)-1H-1,2,3-triazol-4-yl)methoxy)phenyl)propanoate” here?
A: The ring closure, yield after HPLC was 52%.

Q: For “(S)-tert-butyl 2-((S)-2-((2S,4S)-4-((5-((4-((S)-2-((S)-2-((2S,4S)-4-allyl-1-((S)-2-((S)-2-((tert-butoxycarbonyl)(methyl)amino)propanamido)-3,3-dimethylbutanoyl)pyrrolidine-2-carboxamido)-3-(naphthalen-2-yl)propanamido)-3-(cyclopropanesulfonamido)-3-oxopropyl)phenoxy)methyl)-1H-1,2,3-triazol-1-yl)-1-((S)-2-((S)-2-((tert-butoxycarbonyl)(methyl)amino)propanamido)-3,3-dimethylbutanoyl)pyrrolidine-2-carboxamido)-3-(naphthalen-2-yl)propanamido)-3-(4-(allyloxy)phenyl)propanoate”, which ring closure, isolated yield ([2]; 37-membered ring, 2 steps) is on record?
A: The ring closure, isolated yield was 2%.

Q: Which ring closure, isolated yield ([2]; 38-membered ring, Hoveyda-Grubbs II (2 portions), DCE, 2.34 mM, 70.0 °C) does the source give for “(S)-tert-Butyl 2-((S)-2-((2S,4S)-4-allyl-1-((S)-2-((S)-2-((tert-butoxycarbonyl)(methyl)amino)propanamido)-3,3-dimethylbutanoyl)pyrrolidine-2-carboxamido)-3-(naphthalen-2-yl)propanamido)-3-(4-((1-((3R,5S)-5-(((S)-1-(((S)-2-(4-(allyloxy)phenyl)-1-(1-trityl-1H-tetrazol-5-yl)ethyl)amino)-3-(naphthalen-2-yl)-1-oxopropan-2-yl)carbamoyl)-1-((S)-2-((S)-2-((tert-butoxycarbonyl)(methyl)amino)propanamido)-3,3-dimethylbutanoyl)pyrrolidin-3-yl)-1H-1,2,3-triazol-4-yl)methoxy)phenyl)propanoate” here?
A: The ring closure, isolated yield was 48%.

Q: With “(S)-Methyl 2-((S)-2-((2S,4S)-4-allyl-1-((S)-2-((S)-2-((tert-butoxycarbonyl)(methyl)amino)propanamido)-3,3-dimethylbutanoyl)pyrrolidine-2-carboxamido)-3-(naphthalen-2-yl)propanamido)-3-(4-(((E)-4-((3S,5S)-5-(((S)-1-(((S)-3-(4-(allyloxy)phenyl)-1-(cyclopropanesulfonamido)-1-oxopropan-2-yl)amino)-3-(naphthalen-2-yl)-1-oxopropan-2-yl)carbamoyl)-1-((S)-2-((S)-2-((tert-butoxycarbonyl)(methyl)amino)propanamido)-3,3-dimethylbutanoyl)pyrrolidin-3-yl)but-2-en-1-yl)oxy)phenyl)propanoate” as the substance, how does the ring closure, isolated yield ([2]; 38-membered ring, Grubbs I (2 portions), DCE, 1.1 mM, 55.0 °C) read?
A: Its ring closure, isolated yield is 64%.

Q: For “(S)-2-((S)-2-((2S,4S)-4-(4-((4-((S)-2-((S)-2-((2S,4S)-4-Allyl-1-((S)-2-4S)-2-((tert-butoxycarbonyl)(methyl)amino)propanamido)-3,3-dimethylbutanoyl)pyrrolidine-2-carboxamido)-3-(naphthalen-2-yl)propanamido)-3-(methylsulfonamido)-3-oxopropyl)phenoxy)methyl)-1H-1,2,3-triazol-1-yl)-1-((S)-2-((S)-2-((tert-butoxycarbonyl)(methyl)amino)propanamido)-3,3-dimethylbutanoyl)pyrrolidine-2-carboxamido)-3-(naphthalen-2-yl)propanamido)-3-(4-(allyloxy)phenyl)propanoic acid”, which ring closure, yield after HPLC ([1]; Grubbs II (2 portions), 2.9 mM) is on record?
A: Its ring closure, yield after HPLC is 49%.

Q: Which ring closure, yield after HPLC ([1]; Hoveyda-Grubbs II (10 mol%), 3.5 mM) does the source give for “(S)-tert-Butyl 2-((S)-2-((2S,4S)-4-(4-((4-((S)-2-((S)-2-((2S,4S)-4-allyl-1-((S)-2-((S)-2-((tert-butoxycarbonyl)(methyl)amino)propanamido)-3,3-dimethylbutanoyl)pyrrolidine-2-carboxamido)-3-(naphthalen-2-yl)propanamido)-3-(cyclopropanesulfonamido)-3-oxopropyl)phenoxy)methyl)-1H-1,2,3-triazol-1-yl)-1-((S)-2-((S)-2-((tert-butoxycarbonyl)(methyl)amino)propanamido)-3,3-dimethylbutanoyl)pyrrolidine-2-carboxamido)-3-(naphthalen-2-yl)propanamido)-3-(4-(allyloxy)phenyl)propanoate” here?
A: The ring closure, yield after HPLC was 75%.
